Earlier results, collected in paper PMC11267572, “A Repurposed Drug Interferes with Nucleic Acid to Inhibit the Dual Activities of Coronavirus Nsp13” (ACS Chemical Biology, 2024).

System: SARS-CoV-2 Omicron variant
Set-up: method as in PMID 36899912
Details: bronchial epithelial cells; cited from earlier work

O=C(NCc1ccc(Oc2ccccc2)cc1)c1nc(-c2cc(Br)c(O)c(Br)c2)no1 [IOWH-032]
inhibition of viral replication: micromolar inhibition
